According to patent US7772233B2, “Arylamino N-heteroaryl compounds as MEK inhibitors” (Merck Serono, S.A., priority 2006, dated 2010):
pIC50: −log10 of the molar value.

Experiments:
Human Mek1 Kinase = Human Mek1 Kinase (Homo sapiens, UniProt Q02750, S218E/S222E); test: MEK-1 Enzyme Assay (LANCE-HTRF); format: biochemical; settings: constitutively active MEK-1EE, ERK-2K52A substrate, 9 μM ATP, 1.5 hrs room temperature
Experimental: Assay 1: MEK-1 Enzyme Assay (LANCE-HTRF)
Inhibition of Human Mek1 Kinase Activity was Monitored with a Homogenous, fluorescence-based assay. The assay uses time resolved fluorescence resonance energy transfer to probe for phosphorylation of ERK1 by MEK1. The detailed procedure is described in the following:
Constititutively active MEK-1EE (150 ng/well) and ERK-2K52A (110 ng/well) were incubated in black, 384 well Optiplates (Perkin Elmer) for 1.5 hrs at room temperature, in the presence of increasing concentrations of inhibitors. The total reaction volume was 50 μl. The inhibitors were serial diluted in kinase buffer (9 μM ATP, 50 mM Tris-HCl pH 8.0, 10 mM MgCl2, 1 mM DTT and 100 μM Na3VO4), to a final concentration of 1% DMSO. At the end of the incubation, the enzyme reaction was quenched by adding 50 μl of assay buffer containing 50 mM Tris-HCl, 50 mM EDTA, 0.1% BSA and a mixture of 1.25 ug/ml europium labeled anti-phosphotyrosine mAb (Perkin Elmer) and 5 μg/ml of allophycocyanin labeled anti-GST antibody (CIS-US). Plates were agitated on a plate shaker for 30 minutes and the phosphorylation of the ERK-2K52A substrate was measured by homogeneous time resolved fluorescence (HTRF) at 340 nm excitation and 665 nm (Europium)/615 nm (APC) emission filters on the VICTOR V fluorescence plate reader. Phosphorylation is expressed as a ratio of 665 nM signal×10,000/615 nM signal. To assess the inhibitory potential of the compounds, IC50-values were determined. Results are shown in Table 1, column 2, where “+++” indicates IC50 values below 1 μM, “++” indicates IC50 values below 10 μM and above 1 μM, and “+” indicates IC50 values above 10 μM.

Murine colon C26 cells = test: Tumor Cell Proliferation Assay (ATP Lite), C26; format: cell-based; settings: Mus musculus, 96 h, 4 days incubation, ATPlite
Experimental: (§1) Assay 2: Tumor Cell Proliferation Assays (ATP Lite)
(§2) Murine colon C26 (1500 cells/well), human melanoma A375 (2000 cells/well), or human pancreatic MiaPaCa-2 cells (2000 cells/well) were plated in white, 96 well plates (Corning) in growth media (DMEM with 10% fetal bovine serum, 2 mM glutamine for C26 and MiaPaCa-2, and RPMI with 10% fetal bovine serum, 2 mM glutamine for A375) and cultured overnight at 37° C. in a humidified, 5% CO2 incubator. Inhibitors were serially diluted in 100% DMSO and subsequently added to the cells, in growth media, to reach a final concentration of 0.25% DMSO. The cells were incubated for 4 days in the presence of the test compounds and the proliferation was quantitated using the ATPlite cell proliferation kit (Packard). Results of cell proliferation assay are shown in Table 1. columns 3-5, where “+++” indicates IC50 values below 1 μM, “++” indicates IC50 values below 10 μM and above 1 μM, and “+” indicates IC50 values above 10 μM.

[1] = test system: human melanoma A375 cells; test: Tumor Cell Proliferation Assay (ATP Lite), A375; format: cell-based; settings: A-375, 96 h, 4 days incubation, ATPlite
Experimental: as §1, §2

[2] = test system: human pancreatic MiaPaCa-2 cells; test: Tumor Cell Proliferation Assay (ATP Lite), MiaPaCa-2; format: cell-based; settings: MIA PaCa-2, 96 h, 4 days incubation, ATPlite, read-out: MiaPaCa2
Experimental: as §1, §2

Human Mek1 Kinase, sequence (Q02750 whole entry S218E/S222E): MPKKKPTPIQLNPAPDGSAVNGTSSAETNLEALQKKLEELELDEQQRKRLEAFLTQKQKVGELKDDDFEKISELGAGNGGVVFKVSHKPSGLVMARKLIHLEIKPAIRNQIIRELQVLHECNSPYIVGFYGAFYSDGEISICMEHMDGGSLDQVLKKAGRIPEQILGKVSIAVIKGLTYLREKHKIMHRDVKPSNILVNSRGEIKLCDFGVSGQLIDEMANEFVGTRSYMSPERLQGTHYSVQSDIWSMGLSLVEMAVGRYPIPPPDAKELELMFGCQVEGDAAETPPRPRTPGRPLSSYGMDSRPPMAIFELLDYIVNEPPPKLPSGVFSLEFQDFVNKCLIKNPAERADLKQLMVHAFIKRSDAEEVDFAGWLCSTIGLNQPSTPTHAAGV

pIC50 (Human Mek1 Kinase)	pIC50 (Murine colon C26 cells)	pIC50 [1]	pIC50 [2]	SMILES
5.00 to 6.00	–	–	–	CC1(C)OC[C@H](CONC(=O)c2ccc(F)nc2Nc2ccc(I)cc2F)O1 [Example 12, N-{[(4R)-2,2-dimethyl-1,3-dioxolan-4-yl]methoxy}-6-fluoro-2-[(2-fluoro-4-iodophenyl)amino]nicotinamide]
< 5.00	–	–	–	O=C(NOC[C@H](O)CO)c1cc(Cl)nnc1Nc1ccc(I)cc1F [Example 8, 6-Chloro-3-(2-fluoro-4-iodo-phenylamino)-pyridazine-4-carboxylic acid (2,3-dihydroxy-propoxy)-amide]
5.00 to 6.00	< 5.00	< 5.00	< 5.00	O=C(O)c1cc(N2CCOCC2)nnc1Nc1ccc(I)cc1F [Example 5, 3-(2-Fluoro-4-iodo-phenylamino)-6-morpholin-4-yl-pyridazine-4-carboxylic acid]
< 5.00	–	–	–	N#Cc1ncc(F)cc1Nc1ccc(I)cc1F [Example 1, 5-Fluoro-3-(2-fluoro-4-iodo-phenylamino)-pyridine-2-carbonitrile]
> 6.00	< 5.00	5.00 to 6.00	< 5.00	NC(=O)c1ncc(F)cc1Nc1ccc(I)cc1F [Example 3, 5-Fluoro-3-(2-fluoro-4-iodo-phenylamino)-pyridine-2-carboxylic acid amide]
< 5.00	< 5.00	< 5.00	< 5.00	COc1cc(C(=O)O)c(Nc2ccc(I)cc2F)nn1 [Example 6, 3-(2-Fluoro-4-iodo-phenylamino)-6-methoxy-pyridazine-4-carboxylic acid]
5.00 to 6.00	< 5.00	5.00 to 6.00	< 5.00	O=C(NOC[C@H](O)CO)c1ccc(F)nc1Nc1ccc(I)cc1F [Example 13, N—[(R)-2,3-Dihydroxy-propoxy]-6-fluoro-2-[(2-fluoro-4-iodo-phenylamino)]-nicotinamide]
> 6.00	< 5.00	5.00 to 6.00	5.00 to 6.00	NC(=O)c1cc(Cl)nnc1Nc1ccc(I)cc1F [Example 9, 6-Chloro-3-(2-fluoro-4-iodo-phenylamino)-pyridazine-4-carboxylic acid amide]
> 6.00	< 5.00	< 5.00	< 5.00	O=C(O)c1cc(Cl)nnc1Nc1ccc(I)cc1F [Example 4, 6-Chloro-3-(2-fluoro-4-iodo-phenylamino)-pyridazine-4-carboxylic acid]
< 5.00	< 5.00	< 5.00	< 5.00	CC1(C)OC[C@H](CONC(=O)c2cc(Cl)nnc2Nc2ccc(I)cc2F)O1 [Example 7, 6-Chloro-3-(2-fluoro-4-iodo-phenylamino)-pyridazine-4-carboxylic acid (2,2-dimethyl-[1,3]dioxolan-4-ylmethoxy)-amide]
> 6.00	< 5.00	< 5.00	< 5.00	O=C(O)c1ccc(F)nc1Nc1ccc(I)cc1F [Example 11, 6-fluoro-2-[(2-fluoro-4-iodophenyl)amino]nicotinic acid]
5.00 to 6.00	–	–	–	O=C(NCCN1CCOCC1)c1cc(Cl)nnc1Nc1ccc(I)cc1F [Example 10, 6-Chloro-3-(2-fluoro-4-iodo-phenylamino)-pyridazine-4-carboxylic acid (2-morpholin-4-yl-ethyl)-amide]
5.00 to 6.00	–	–	–	O=C(O)c1ncc(F)cc1Nc1ccc(I)cc1F [Example 2, 5-Fluoro-3-(2-fluoro-4-iodo-phenylamino)-pyridine-2-carboxylic acid]
